Here are results for four compounds from ChEMBL document CHEMBL1130497, “Novel 7-hydroxycoumarin based fluorescent labels” (Bioorg Med Chem Lett, 1997).

This data set in a line: pKa value was determined. The data set is classed as physicochemical.

SMILES strings stand for the structures.

The term pKa denotes the negative logarithm of the acid dissociation constant. In the case of `O=C(O)CCCCc1cc(=O)oc2cc(O)ccc12`, the pKa is 7.8.
Then `O=C(O)CCCCc1cc(=O)oc2c(CN3CCCCC3)c(O)ccc12`, with 6.6; and `O=C(O)CCCCc1cc(=O)oc2c(CN3CCCC3)c(O)ccc12`, with 6.7.
Then `CCN(CC)Cc1c(O)ccc2c(CCCCC(=O)O)cc(=O)oc12`, with 6.6.
